US8039634B2, “Oxazole hydroxamic acid derivatives and use thereof” (SK Holdings Co., Ltd., priority 2005, dated 2011)
≈ marks a conversion by molar mass, not a printed value. Read-outs that look alike come from different tables or passages of the source.

Tests used:
HDAC = assay: Inhibition of HDAC activity (fluorometric, HeLa nuclear extract); assay type: biochemical, human; details: 30 min room temperature
Procedure: In order to determine inhibitory activity of a compound in accordance with the present invention on HDAC, evaluation was carried out using an aminocoumarin derivative of ω-acetylated lysine as a substrate for an enzyme. As an enzyme source, a nuclear extract obtained from human cervical cancer cell line HeLa cells was used. The above evaluation was carried out with modification of a method based on the details described in Weegener et al. (2003) Analytical Biochemistry, 321, 203-208. That is, […], […] of nuclear extract and a compound of Example 1 at different concentrations were added and maintained at room temperature for 30 min. Trypsin (10 mg/ml) and Trichostatin A (final concentration: […]) were added to the resulting mixture which was reacted at the same temperature for 20 min, thereby terminating the reaction. The enzyme activity-inhibitory concentration of the compound added was determined using a fluorometer. As a control compound, suberoylanilide hydroxamic acid (SAHA) was used. IC50 in Table 1 below refers to a concentration of the compound that leads to a 50% decrease in activity of HDAC.

HCT116 = assay: In vitro toxicity / growth inhibition (CellTiter-Glo), HCT116; assay type: cell-based; details: Homo sapiens, HCT-116; HCT116, 48 hr
Procedure: (§1) In order to determine in vitro toxicity of a compound in accordance with the present invention, 18 species of human cancer cell lines (HeLa, cervical cancer cell line; HCT116, SW480, SW620, RKO, colon cancer cell lines; H460, H1299, A549, lung cancer cell lines; MCF7, MDA-MB231, MDA-MB453, breast cancer cell lines; Jurkat, K562, THP1, Ramos, U937, blood cancer cell lines; PC3, DU145, prostate cancer cell lines) were used. Cell lines were cultured in RPMI 1640 culture medium containing penicillin/streptomycin (100 units/mL) and heat-inactivated 5% fetal bovine serum (FBS) under standard culture conditions ([…], 5% CO2, and 100% relative humidity). Thereafter, single cell suspension was obtained via trypsin treatment and pipetting. The suspension was diluted with the same medium such that a cell density is in a range of 8×10^3 to 1.5×10^4 cells/well, and was transferred to a 96-well microtiter plate. After culturing for 24 hours, cell cultures were treated with respective compounds of Examples at various concentrations. […] The above evaluation was carried out according to the methods given in a manufacture's manual. GI50 in Table 1 below refers to a concentration that compounds of Examples cause 50% growth inhibition of various cancer cells.

ICR-BG mice = details: mouse, in vivo
Procedure: In order to confirm acute toxicity in vivo, a Rotarod Neurotoxicity test was carried out on ICR-BG mice (N=8). Animals were administered at a dose of 300 mg/kg. Animals received training at 7 rpm for 10 min twice, and 1 hour later the compound of Example 1 was administered intraperitoneally (ip) to 8 mice. Thereafter, for one minute at the intervals of every 30 min, 1 hour, 2 hours and 4 hours, times that animals fell from the rotarod and death of animal post-drug administration or affliction-related responses were continuously observed. When mice fell from the rotarod more than thrice in one minute, it was regarded as fall off.

H460 = assay: In vitro toxicity / growth inhibition (CellTiter-Glo), H460; assay type: cell-based; details: Homo sapiens, NCI-H460; H460, 48 hr
Procedure: as §1

Raw cell = assay: Inhibition of LPS-induced NO increases; assay type: cell-based, Mouse; details: 5 μM compound
Procedure: As one of the methods to confirm anti-inflammatory responses, inhibition of increases in nitric oxide (NO) due to lipopolysaccharide (LPS) was carried out. Mouse cell line (Raw cell) was cultured in RPMI 1640 culture medium containing penicillin/streptomycin (100 units/mL) and heat-inactivated 5% fetal bovine serum (FBS) under standard culture conditions ([…], 5% CO2, 37° C., and 100% relative humidity). Test compounds were dissolved in dimethylsulfoxide (DMSO) and were used as a final concentration of 1 to 40 μM. Cells were proliferated to a cell density of 5×10^3 to 2×10^4 cells on a 24-well plate and were treated with the respective compounds (equal amounts of 5 μM) 1 hour prior to treatment with LPS ([…]). The thus-treated cells were cultured for 18 hours, and thereafter the amounts of NO thus produced were measured using Griess Reagent. Measurement was confirmed using an absorption spectrophotometer at 540 nm. The value was expressed as percentage (%) relative to a control in which LPS alone was treated.

HeLa = assay: In vitro toxicity / growth inhibition (CellTiter-Glo), HeLa; assay type: cell-based; details: Homo sapiens, 48 hr
Procedure: as §1

Solubility = assay type: physicochemical
Histone Deacetylase = assay: Histone H3/H4 acetylation in HCT116 cells (Western blot); assay type: cell-based, human; details: 1 μM, HCT116, 0, 2 and 5 hours
Procedure: Human color cancer cell line (HCT116) was cultured in RPMI 1640 culture medium containing penicillin/streptomycin (100 units/mL) and heat-inactivated 5% fetal bovine serum (FBS) under standard culture conditions ([…], 5% CO2, 37° C., and 100% relative humidity). Test compounds were dissolved in dimethylsulfoxide (DMSO) and were used as a final concentration of 1 μM. Cells (3×10^7) were cultured in the presence of the test compound (1 μM, Example 1) and absence thereof for 0, 2 and 5 hours, respectively. The cell suspension, which was obtained via trypsin treatment and pipetting, was centrifuged at 200×g for 10 min to form a pellet. The thus-formed pellet was washed twice with 10-fold volume of saline and re-suspended in a buffer [[…], pH 7.9, 1.5 mM MgCl2, 10 mM KCl, 0.5 mM DTT, 1.5 mM PMSF]. Thereafter, hydrochloric acid was added in a final concentration of 0.2 M to the resulting suspension which was then stored on ice for 30 min. The final suspension was centrifuged at 11,000 rpm and 4° C. for 10 min. […]
Dialyzed proteins were subjected to gel electrophoresis using 16% protein gel and were probed with acetylated histone H3 (Ac-H3) or H4 (Ac-H4) antibodies (Upstate Biotechnology Inc). […] In order to compare the equal amount of proteins, protein quantification and protein gel were run in parallel, followed by coumassie blue staining.

MCF7 = assay: In vitro toxicity / growth inhibition (CellTiter-Glo), MCF7; assay type: cell-based; details: Homo sapiens; MCF7, 48 hr
Procedure: as §1

## COc1ccc(-c2oc(CCCCCCC(=O)NO)nc2-c2ccccc2)cc1 [Example 1, 7-(5-(4-methoxyphenyl)-4-phenyloxazol-2-yl)heptanoic acid hydroxyamide]
HDAC
  IC50: 1.07 nM
HCT116
  GI50: 3000 nM
ICR-BG mice; 0.5 h
  Mice fallen off rotarod: 1/8(Fallen off)
ICR-BG mice; 1 h
  Mice fallen off rotarod: 1/8
ICR-BG mice; 2 h
  Mice fallen off rotarod: 0/8
ICR-BG mice; 4 h
  Mice fallen off rotarod: 0/8
H460
  GI50: 3630 nM
Raw cell; LPS, 18 hours, Griess Reagent
  NO: 63.7 μM/L
Raw cell; Mus musculus, 18 h, relative to LPS alone control
  activity at 5 µM: 57.9%
HeLa
  GI50: 1400 nM
Solubility
  solubility: 200 µg/mL (≈ 507 µM)
Histone Deacetylase
  Acetylation of histone H3 (Ac-H3) and H4 (Ac-H4): acetylated over time was confirmed via Western blot analysis
MCF7
  GI50: 700 nM
